What was measured:
sirtuin = details: reported in Non-Patent Documents 4 and 5; cited from earlier work
SIRT1 enzyme [1] = molecular target: T1, SIRT1 enzyme (Homo sapiens, UniProt Q96EB6); assay: SIRT1 Activity Assay/Drug Discovery kit, Fluorescent: sirtuin activity acceleration by black ginger extracts and fractions (Example 3); type: biochemical; details: subject sample solution 500 μg/mL, 10 μL/well; FIGS. 1 and 2
T1 construct: purchased BIOMOL International (via COSMO BIO CO., LTD.) AK-555 (kit); SE-239 (enzyme)
T1 sequence (Q96EB6 1-747): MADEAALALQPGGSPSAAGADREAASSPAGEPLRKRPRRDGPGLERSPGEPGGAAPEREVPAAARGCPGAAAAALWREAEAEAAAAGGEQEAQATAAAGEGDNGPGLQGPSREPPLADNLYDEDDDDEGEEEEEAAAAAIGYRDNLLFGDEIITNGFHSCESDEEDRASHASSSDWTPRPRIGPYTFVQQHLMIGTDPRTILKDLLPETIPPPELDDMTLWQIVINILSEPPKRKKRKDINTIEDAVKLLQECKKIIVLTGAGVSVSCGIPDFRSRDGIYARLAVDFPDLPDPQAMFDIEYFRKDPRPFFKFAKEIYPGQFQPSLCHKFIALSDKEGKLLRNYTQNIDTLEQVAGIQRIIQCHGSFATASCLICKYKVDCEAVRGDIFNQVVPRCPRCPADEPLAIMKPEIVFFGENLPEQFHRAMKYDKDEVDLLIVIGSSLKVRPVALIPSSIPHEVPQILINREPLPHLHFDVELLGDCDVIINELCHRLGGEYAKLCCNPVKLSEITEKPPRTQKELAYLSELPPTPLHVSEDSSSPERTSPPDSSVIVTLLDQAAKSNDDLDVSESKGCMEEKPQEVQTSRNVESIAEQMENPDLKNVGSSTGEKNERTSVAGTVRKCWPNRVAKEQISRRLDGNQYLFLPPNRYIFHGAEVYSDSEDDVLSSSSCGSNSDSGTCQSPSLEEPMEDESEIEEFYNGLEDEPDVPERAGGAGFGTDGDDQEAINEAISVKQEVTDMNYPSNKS
Protocol: The sirtuin activity was measured according to the attached protocol using SIRT1 Activity Assay/Drug Discovery kit, Fluorescent (AK-555, BIOMOL International, Plymouth Meeting, Pa., USA [COSMO BIO CO., LTD., Tokyo]).
All measurement reagents (preserved at −80° C.) were stationed on ice until use to melt the SIRT1 enzyme (SE-239) and 5× Developer II (KI-176) moderately. SIRT1 enzyme was diluted to 0.2 U/μL with an assay buffer (KI-286). Resveratrol and extracts and fragments of the black ginger obtained above were used as subject samples. Solutions of 500 μg/mL were prepared using purified water for hot water extracts and the water phase fraction, and using DMSO for other samples. A solution of 10 μL/well was used for each obtained subject sample. To the control was added either DMSO or purified water instead of a subject sample. The substrate Fluor de Lys-SIRT1 (KI-177; 5 mM) plus a coenzyme NAD^+ (KI-282; 50 mM) were diluted with an assay buffer (KI-286) to obtain a concentration that is 3.33 folds that of the final usage concentration, and used in an amount of 15 μL/well. […] Then, a reaction stop solution Developer II/2 mM nicotinamide was added at 50 μL/well, and the fluorescent probe generated from Developer II was measured (excited wave length 380 nm, fluorescent wave length 460 nm) by a fluorescent plate reader (Tecan Co., Infinite 200) within 60 minutes after the reaction stopped.

SIRT1 enzyme [2] = molecular target: T1, SIRT1 enzyme; assay: SIRT1 fluorescent activity assay: sirtuin activity acceleration by polyalkoxyflavonoid compounds (Example 6); type: biochemical; details: FIG. 8
Protocol: The sirtuin activity was measured according to a protocol similar to that of Example 3.
All measurement reagents (preserved at −80° C.) were stationed on ice until use to melt the SIRT1 enzyme (SE-239) and 5× Developer II (KI-176) moderately. SIRT1 enzyme was diluted to 0.2 U/μL with an assay buffer (KI-286). Resveratrol, Compounds 1 to 5 and nobiletin (Funakoshi Co.) were used as subject samples. […] To the control was added DMSO instead of a subject sample. The substrate Fluor de Lys-SIRT1 (KI-177; 5 mM) plus a coenzyme NAD^+ (KI-282; 50 mM) was diluted with an assay buffer (KI-286) to obtain a concentration that is 3.33 folds that of the final use concentration, and used in an amount of 15 μL/well. A subject sample solution (10 μL/well), SIRT1 enzyme solution (0.2 U/μL, 5 μL/well) and an assay buffer (10 μL/well) were added to the measurement microplate and pre-incubated at 37° C. for 5 minutes. The substrate solution that was heated preliminary at 37° C. was added at 25 μL/well, then, further incubated at 37° C. for 10 minutes. Then, a reaction stop solution Developer II/2 mM nicotinamide was added at 50 μL/well, and the fluorescent probe generated from Developer II was measured (excited wave length 360 nm, fluorescent wave length 460 nm) by a fluorescent plate reader (Tecan Co., Infinite 200) within 60 minutes after the reaction stopped.

Row | sirtuin activity by comparison with the control value (SIRT1 enzyme [1]) | SIRT1 activity (SIRT1 enzyme [2]; concentrations of 100 μg/mL and 20 μg/mL) | SIRT1 activity (SIRT1 enzyme [2]; low concentrations of 10 μg/mL and 2 μg/mL) | SMILES | sirtuin activation activity (sirtuin)
1 |  |  |  | O=C(/C=C/c1ccc(O)c(O)c1)c1ccc(O)cc1O [butein, 3,4,2′,4′-tetrahydroxychalcone] | weaker than resveratrol
2 |  |  |  | O=c1c(O)c(-c2ccc(O)c(O)c2)oc2cc(O)ccc12 [fisetin, 3,7,3′,4′-tetrahydroxyflavone] | weaker than resveratrol
3 |  |  |  | O=C(/C=C/c1ccc(O)cc1)c1ccc(O)cc1O [isoliquiritigenin, 4,2′,4′-trihydroxychalcone] | weaker than resveratrol
4 |  |  |  | O=c1c(O)c(-c2ccc(O)c(O)c2)oc2cc(O)cc(O)c12 [quercetin, 3,5,7,3′,4′-pentahydroxyflavone] | weaker than resveratrol
5 | enhanced | accelerated | almost no activity was observed | Oc1ccc(C=Cc2cc(O)cc(O)c2)cc1 [resveratrol] | effective in activating sirtuin
